Laboratory results published in patent US11566007B2, “Ras inhibitors” (Revolution Medicines, Inc., priority 2019, dated 2023).
Several values for one entry are separate records, joined by “and”; a condition that tells them apart may be missing. Equal values may be shown once.

Columns and labels:
KRAS G13D = KRAS G13D (Homo sapiens (Human), UniProt P01116+P62937, G13D); test: Ras-Raf (BRAF RBD) disruption / FRET / MOA assay, KRAS G13D; format: biochemical; settings: read-out: IC50* KRAS G13D FRET data
Protocol: (§1) The purpose of this biochemical assay is to measure the ability of test compounds to facilitate ternary complex formation between a nucleotide-loaded Ras isoform and cyclophilin A; the resulting ternary complex disrupts binding to a BRAF^RBD construct, inhibiting Ras signaling through a RAF effector.
(§2) Compound is present in plate wells as a 10-point 3-fold dilution series starting at a final concentration of 30 μM. After incubation at 25° C. for 3 hours, a mixture of Anti-His Eu-W1024 and anti-GST allophycocyanin is then added to assay sample wells at final concentrations of 10 nM and 50 nM, respectively, and the reaction incubated for an additional 1.5 hours. […] Compounds that facilitate disruption of a Ras:RAF complex are identified as those eliciting a decrease in the TR-FRET ratio relative to DMSO control wells.
(§3) This protocol may also be executed substituting other Ras proteins or nucleotides.
(§4) The purpose of this biochemical assay was to measure the ability of test compounds to facilitate ternary complex formation between a nucleotide-loaded K-Ras isoform and Cyclophilin A; the resulting ternary complex disrupts binding to a BRAF^RBD construct, inhibiting K-Ras signaling through a RAF effector. Data is reported as IC50 values.
as §2, with “Compound was” for “Compound is”, “allophycocyanin was” for “allophycocyanin is”, “a K-Ras:RAF” for “a Ras:RAF”, “complex were” for “complex are”

KRAS WT = KRAS WT (Homo sapiens (Human), UniProt P01116+P62937); test: Ras-Raf (BRAF RBD) disruption / FRET / MOA assay, KRAS WT; format: biochemical; settings: read-out: IC50* KRAS WT FRET data
Protocol: as §1, §2, §3, §4
as §2, with “Compound was” for “Compound is”, “allophycocyanin was” for “allophycocyanin is”, “a K-Ras:RAF” for “a Ras:RAF”, “complex were” for “complex are”

K-Ras G12C = K-Ras G12C (Homo sapiens (Human), UniProt P01116+P62937, G12C); test: Ras-Raf (BRAF RBD) disruption / FRET / MOA assay, KRAS G12C; format: biochemical; settings: KRAS G12C; Ras-Raf disruption/FRET/MOA assay; read-out: IC50* KRAS G12C FRET data
Procedure, shortened: (§5)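 Ternary complex formation (Ras–compound–cyclophilin A) displacing BRAF RBD, monitored by TR-FRET. Three hours at 25° C with compound (top 30 μM final), then 1.5 h with the labelled antibodies. Lower ratio than DMSO indicates disruption; IC50 reported.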

KRAS G12V = KRAS G12V (Homo sapiens (Human), UniProt P01116+P62937, G12V); test: Ras-Raf (BRAF RBD) disruption / FRET / MOA assay, KRAS G12V; format: biochemical; settings: read-out: IC50* KRAS G12V FRET data
Procedure, shortened: as §5

KRAS G12S = KRAS G12S (Homo sapiens (Human), UniProt P01116+P62937, G12S); test: Ras-Raf (BRAF RBD) disruption / FRET / MOA assay, KRAS G12S; format: biochemical; settings: Ras-Raf disruption/FRET/MOA assay; class symbols; read-out: KRAS G12S FRET data IC50
Procedure, shortened: as §5

NRAS G12C = NRAS G12C (Homo sapiens (Human), UniProt P01111+P62937, G12C); test: Ras-Raf (BRAF RBD) disruption / FRET / MOA assay, NRAS G12C; format: biochemical; settings: read-out: IC50* NRAS G12C FRET data
Protocol: as §1, §2
This protocol may also be executed substituting other Ras proteins or nucleotides. […]

KRAS G12D = KRAS G12D (Homo sapiens (Human), UniProt P01116+P62937, G12D); test: Ras-Raf (BRAF RBD) disruption / FRET / MOA assay, KRAS G12D; format: biochemical; settings: Ras-Raf disruption/FRET/MOA assay; class symbols; read-out: KRAS G12D FRET data IC50
Procedure, shortened: as §5

[1] = system: NCI-H358 cells (K-Ras G12C); test: Potency assay: pERK in NCI-H358 cells; format: cell-based, human; settings: Homo sapiens, NCI-H358; H358 KRAS G12C; read-out: pERK EC50
Procedure, shortened: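 4 h cpd, 37 °C; 10-pt 3-fold series, 10 mM DMSO top stock, duplicates. Readout pERK: AlphaLISA SureFire Ultra or In-Cell Western (IR-800CW secondary, DRAQ5 DNA stain). IC50, 4-PL fit vs log conc.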

K-Ras G13C = K-Ras G13C (Homo sapiens (Human), UniProt P01116+P62937, G13C); test: Ras-Raf (BRAF RBD) disruption / FRET / MOA assay, KRAS G13C; format: biochemical; settings: KRAS G13C; Ras-Raf disruption/FRET/MOA assay; read-out: IC50* KRAS G13C FRET data
Protocol: as §1, §2, §3, §4
as §2, with “Compound was” for “Compound is”, “allophycocyanin was” for “allophycocyanin is”, “a K-Ras:RAF” for “a Ras:RAF”, “complex were” for “complex are”

Chain of KRAS G13D (P01116-2 other isoform, or with tags, fused parts or gaps G13D): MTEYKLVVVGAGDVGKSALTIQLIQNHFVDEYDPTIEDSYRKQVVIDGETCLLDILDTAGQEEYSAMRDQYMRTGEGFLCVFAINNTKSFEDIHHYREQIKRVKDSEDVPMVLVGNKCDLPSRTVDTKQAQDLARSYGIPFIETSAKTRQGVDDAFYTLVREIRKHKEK
Chain of KRAS G13D (P62937 whole entry, canonical isoform): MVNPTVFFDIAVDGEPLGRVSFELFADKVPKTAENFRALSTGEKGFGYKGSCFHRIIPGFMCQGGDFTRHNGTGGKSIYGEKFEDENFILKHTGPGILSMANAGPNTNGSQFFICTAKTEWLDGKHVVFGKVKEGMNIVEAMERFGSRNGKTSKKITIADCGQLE
Chain of KRAS WT (P01116-2 other isoform, or with tags, fused parts or gaps): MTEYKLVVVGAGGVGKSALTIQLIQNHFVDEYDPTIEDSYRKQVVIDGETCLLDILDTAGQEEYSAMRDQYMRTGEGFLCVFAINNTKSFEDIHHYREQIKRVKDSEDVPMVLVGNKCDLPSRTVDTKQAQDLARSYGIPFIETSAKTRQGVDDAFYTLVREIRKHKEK
Chain of KRAS WT (P62937 whole entry): as the sequence (P62937 whole entry, canonical isoform) above
Chain of KRAS G12V (P01116-2 other isoform, or with tags, fused parts or gaps G12V): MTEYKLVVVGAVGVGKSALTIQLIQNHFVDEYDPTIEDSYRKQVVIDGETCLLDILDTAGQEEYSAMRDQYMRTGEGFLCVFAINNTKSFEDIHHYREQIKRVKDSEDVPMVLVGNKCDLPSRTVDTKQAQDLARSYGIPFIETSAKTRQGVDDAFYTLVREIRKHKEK
Chain of KRAS G12V (P62937 whole entry): as the sequence (P62937 whole entry, canonical isoform) above
Chain of NRAS G12C (P01111 whole entry G12C): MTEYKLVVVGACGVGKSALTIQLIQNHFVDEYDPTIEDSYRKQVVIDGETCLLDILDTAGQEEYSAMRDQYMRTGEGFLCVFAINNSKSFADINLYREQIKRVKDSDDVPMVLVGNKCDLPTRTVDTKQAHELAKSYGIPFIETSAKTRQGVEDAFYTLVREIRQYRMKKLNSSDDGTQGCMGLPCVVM
Chain of NRAS G12C (P62937 whole entry): as the sequence (P62937 whole entry, canonical isoform) above
Chain of K-Ras G12C (P01116-2 other isoform, or with tags, fused parts or gaps G12C): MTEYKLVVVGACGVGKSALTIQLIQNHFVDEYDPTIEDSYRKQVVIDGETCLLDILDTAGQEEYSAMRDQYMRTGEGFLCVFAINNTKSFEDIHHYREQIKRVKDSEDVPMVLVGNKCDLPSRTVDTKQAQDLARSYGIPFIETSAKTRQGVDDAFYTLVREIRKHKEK
Chain of K-Ras G12C (P62937 whole entry): as the sequence (P62937 whole entry, canonical isoform) above
Chain of K-Ras G13C (P01116-2 other isoform, or with tags, fused parts or gaps G13C): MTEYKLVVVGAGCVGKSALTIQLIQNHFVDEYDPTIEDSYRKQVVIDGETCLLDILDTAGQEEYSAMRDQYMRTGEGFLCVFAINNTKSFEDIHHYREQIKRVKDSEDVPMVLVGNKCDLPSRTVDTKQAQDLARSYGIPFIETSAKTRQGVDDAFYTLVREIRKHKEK
Chain of K-Ras G13C (P62937 whole entry): as the sequence (P62937 whole entry, canonical isoform) above
Chain of KRAS G12D (P01116-2 other isoform, or with tags, fused parts or gaps G12D): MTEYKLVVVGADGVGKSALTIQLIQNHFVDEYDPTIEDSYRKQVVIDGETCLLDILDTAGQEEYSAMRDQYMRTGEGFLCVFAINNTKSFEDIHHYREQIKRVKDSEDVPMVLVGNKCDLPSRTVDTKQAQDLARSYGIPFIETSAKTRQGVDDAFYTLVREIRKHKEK
Chain of KRAS G12D (P62937 whole entry): as the sequence (P62937 whole entry, canonical isoform) above
Chain of KRAS G12S (P01116-2 other isoform, or with tags, fused parts or gaps G12S): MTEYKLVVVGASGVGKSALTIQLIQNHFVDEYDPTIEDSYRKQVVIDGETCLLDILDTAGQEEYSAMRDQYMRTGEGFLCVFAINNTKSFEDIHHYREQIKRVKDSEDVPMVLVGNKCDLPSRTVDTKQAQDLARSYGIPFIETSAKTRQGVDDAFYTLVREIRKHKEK
Chain of KRAS G12S (P62937 whole entry): as the sequence (P62937 whole entry, canonical isoform) above

| SMILES | IC50 (KRAS G13D) | IC50 (KRAS WT) | IC50 (K-Ras G12C) | IC50 (KRAS G12V) | IC50 (KRAS G12S) | IC50 (NRAS G12C) | IC50 (KRAS G12D) | EC50 [1] [nM] | IC50 (K-Ras G13C) |
| --- | --- | --- | --- | --- | --- | --- | --- | --- | --- |
| CCn1c(-c2cccnc2[C@H](C)OC)c2c3cc(ccc31)-c1cc(O)cc(c1)C[C@H](NC(=O)[C@H](C(C)C)N(C)C(=O)C1CCN(C(=O)/C=C/CN(C)C)CC1)C(=O)N1CCC[C@H](N1)C(=O)OCC(C)(C)C2 (atropisomer, axis not shown) [Example A261] | 100 to 1000 nM and 10 to 100 nM | 1000 to 10000 nM and 10 to 100 nM | 10 to 100 nM and 100 to 1000 nM | 100 to 1000 nM and 1000 to 10000 nM | 100 to 1000 nM | 10 to 100 nM and 100 to 1000 nM | 1000 to 10000 nM and 100 to 1000 nM | < 5000 | 10 to 100 nM and 100 to 1000 nM |
| C=CC(=O)N1CC[C@H](C(=O)N(C)[C@H](C(=O)N[C@H]2Cc3nc(cs3)-c3ccc4c(c3)c(c(-c3cccnc3[C@H](C)OC)n4CC)CC(C)(C)COC(=O)[C@@H]3CCCN(N3)C2=O)C(C)C)C1 (atropisomer, axis not shown) [Example A279] | > 10000 nM | > 10000 nM | 1 µM to 10 µM and > 10 µM (2×) | > 10000 nM | > 10000 nM | 1 µM to 10 µM and > 10 µM (2×) | > 10000 nM | < 5000 | > 10 µM (2×) and 1 µM to 10 µM |
| C=CS(=O)(=O)N1CC[C@H](C(=O)N(C)[C@H](C(=O)N[C@H]2Cc3nc(cs3)-c3ccc4c(c3)c(c(-c3cccnc3[C@H](C)OC)n4CC)CC(C)(C)COC(=O)[C@@H]3CCCN(N3)C2=O)C(C)C)C1 (atropisomer, axis not shown) [Example A283] | > 10000 nM | 1 µM to 10 µM and > 10 µM (2×) | 10 nM to 100 nM and 1 µM to 10 µM (2×) | 1 µM to 10 µM and > 10 µM (2×) | 1 µM to 10 µM and > 10 µM (2×) | 100 to 1000 nM and 1000 to 10000 nM and > 10000 nM | > 10000 nM | < 5000 | 10 nM to 100 nM and 1 µM to 10 µM (2×) |
| C=CC(=O)N1CC2(CCN([C@H](C(=O)N[C@H]3Cc4cc(O)cc(c4)-c4ccc5c(c4)c(c(-c4cccnc4[C@H](C)OC)n5CC)CC(C)(C)COC(=O)[C@@H]4CCCN(N4)C3=O)C(C)C)C2=O)C1 (atropisomer, axis not shown) [Example A294] | 10 to 100 nM | 10 to 100 nM | < 10 nM | 100 to 1000 nM | 10 to 100 nM | < 10 nM | 100 to 1000 nM | < 5000 | < 10 nM |
| CCn1c(-c2cccnc2[C@H](C)OC)c2c3cc(ccc31)-c1cccc(c1)C[C@H](NC(=O)[C@H](C(C)C)N(C)C(=O)[C@H]1CCN(C(=O)C#CC(C)(C)N3CCC(F)(F)C3)C1)C(=O)N1CCC[C@H](N1)C(=O)OCC(C)(C)C2 (atropisomer, axis not shown) [Example A325] | > 10000 nM | > 10000 nM | 1000 to 10000 nM | 1000 to 10000 nM | 1000 to 10000 nM | 1000 to 10000 nM | > 10000 nM | < 5000 | 1000 to 10000 nM |
| CCn1c(-c2cccnc2[C@H](C)OC)c2c3cc(ccc31)-c1cc(cc(C(F)F)c1)C[C@H](NC(=O)[C@H](C(C)C)N(C)C(=O)[C@H]1CCN(C(=O)C#CC(C)(C)N3CCC3)C1)C(=O)N1CCC[C@H](N1)C(=O)OCC(C)(C)C2 (atropisomer, axis not shown) [Example A466] | 1000 to 10000 nM | 1000 to 10000 nM | 10 to 100 nM | 1000 to 10000 nM | 1000 to 10000 nM | 10 to 100 nM | > 10000 nM | < 5000 | 100 to 1000 nM |
| C=CC(=O)N1CC[C@@H](C(=O)N(C)[C@H](C(=O)N[C@H]2Cc3cccc(c3)-c3ccc4c(c3)c(c(-c3cccnc3[C@H](C)OC)n4CC)CC(C)(C)COC(=O)[C@@H]3CCCN(N3)C2=O)C(C)C)C1 (atropisomer, axis not shown) [Example A488] | 1000 to 10000 nM | 1000 to 10000 nM | 100 to 1000 nM | 1000 to 10000 nM | 1000 to 10000 nM | 100 to 1000 nM | 1000 to 10000 nM | < 5000 | 100 to 1000 nM |
